Data on five compounds can be found in patent US20070259861A1, “Combination therapy with non-selective COX inhibitors to prevent COX-related gastric injuries” (Pharmena North America Inc., priority 2006, published 2007).

The subject of data set [1] is prostacyclin (PGI2) release. To be noted: cited from earlier work; for release of prostacyclin: animal models.
Another data set concerns gastric mucosa. Briefly: ASA- and WRS-induced gastric lesions in non-diabetic and streptozocin-diabetic rats. To be noted: for rise of gastric blood flow (GBF): H2-gas clearance. The class given is in vivo. Here is the method:
In this study, streptozocin (70 mg/kg injected intraperitoneally) was used to induce diabetes mellitus and non-diabetic and diabetic rats were pretreated 30 min prior to exposure to aspirin (ASA; 150 mg/kg in 0.1 N HCl i.g.) or 3.5 h of water immersion and restraint stress (WRS) with 1) vehicle (saline) or 2) MNA (2.5-50 mg/kg i.g.). The area and number of gastric lesions was determined by planimetry, gastric blood flow (GBF) was examined by H2-gas clearance technique, and mieloperoxidase (MPO) activity, activity of superoxide dismutase (SOD) and the malonyldialdehyde (MDA) concentration as an index of lipid peroxidation were determined in gastric mucosa using ELISA. The gene expression IL-1β and TNF-α in the gastric mucosa and their plasma levels were evaluated by RT-PCR and ELISA, respectively. […] This experiment is also described in an abstract published for Digestive Disease Week 2006 (May 20-25, 2006, Los Angeles, Calif.; http://www.medscape.com/viewprogram/5452).

The mark [2] stands for this setting: ASA 150 mg/kg in 0.1 N HCl i.g.

Consider 1-methyl-3-acetylpyridinium salt, for which, in data set [1], the release of prostacyclin result is “ability to induce the release of prostacyclin”.

Turning to `C[n+]1cccc(C(=O)NCO)c1` [1-methyl-N′-(hydroxymethyl)nicotinamide], the release of prostacyclin result in data set [1] is given as “ability to induce the release of prostacyclin”.

For the compound `C[n+]1cccc(C(N)=O)c1` [1-methylnicotinamide chloride], in data set [1], the release of prostacyclin result is given as “ability to induce the release of prostacyclin”.

Turning to `CC(=O)Oc1ccccc1C(=O)O` [ASA, aspirin], in the data set on gastric mucosa (setting [2]), the gastric lesions entry was “typical gastric lesions” and the “reduction of GBF from basal” value came out at 35%. Moreover, the “increase of MPO activity” value with gastric mucosa (ASA 150 mg/kg in 0.1 N HCl i.g., gastric mucosa) is on record as 2-3 fold. Besides, the “mucosal SOD activity” value in the data set on gastric mucosa (ASA-exposed animals without or with diabetes) is “significantly decreased”. Further, the “MDA activity (lipid peroxidation)” value in the data set with gastric mucosa (ASA-exposed animals without or with diabetes, gastric mucosa) is recorded as “significantly increased”. For the same compound, the “plasma levels of TNF-α and IL-1” value in the data set with gastric mucosa (ASA-exposed, ELISA) was “marked increase”. Further, the “mRNAs for TNF-α and IL-1” value in the data set on gastric mucosa (ASA-exposed, gastric mucosa, RT-PCR) is “overexpression”.

Regarding `CNC(=O)c1cccnc1` [MNA, N-methylnicotinamide], in data set [1] (thrombolytic assay), the “secretion of PGI2” value is given as “stimulate the secretion of PGI2”. The “decrease of mucosal SOD activity and increase of MDA” value in the data set on gastric mucosa (ASA- and WRS-exposed animals without or with diabetes) is “markedly attenuated”. For the same compound, in the data set on gastric mucosa (MNA 2.5-50 mg/kg i.g. 30 min before 3.5 h WRS, diabetic and non-diabetic rats), the WRS-induced gastric erosions entry is given as “dose-dependently attenuated”. In addition, in the data set on gastric mucosa (MNA 2.5-50 mg/kg i.g. 30 min before ASA 150 mg/kg i.g., diabetic and non-diabetic rats), the ASA-induced gastric erosions entry is on record as “dose-dependently attenuated”. The “IL-1β and TNF-α” value in the data set on gastric mucosa (gastric mucosa expression (RT-PCR) and plasma levels (ELISA)) is listed as “downregulation”. Moreover, the entries for the “rise of gastric blood flow (GBF)” value in the data set with gastric mucosa (injured gastric mucosa) and in the data set on gastric mucosa (intact gastric mucosa) were roughly 33% and “about 22%”, respectively.
